Patent EP0572365A2, “Heteroprostanoids, process for their production and therapeutical use thereof” (NUOVO CONSORZIO SANITARIO NAZIONALE del Dott. Paolo Malizia …, priority 1992, dated 1993)

Assay: Stability assay: storage of buffered water solutions, residual activity measured in the thrombocyte aggregation assay
Assay type: physicochemical
Details: room temperature, water solution buffered at pH 7
Excerpt: The stability of some compounds according to the present invention has been compared with that of a natural prostaglandine through storage at room temperature of water solutions buffered at pH 7, by measuring the residual activity in the assay of thrombocyte aggregation at different times; the results, listed in Table III, show a much greater stability: […]

SMILES	residual activity in the assay of thrombocyte aggregation (7 gg)	residual activity in the assay of thrombocyte aggregation (1h)	residual activity in the assay of thrombocyte aggregation (12h)	residual activity in the assay of thrombocyte aggregation (24h)
CCCCC[C@H](O)/C=C/[C@H]1[C@H](O)CC(=O)[C@@H]1CCCCCCC(=O)O [PGE₁, Alprostadil, reference compound]	7 gg: 0	1h: 30	12h: 2	24h: 0
CCCCC(=O)NCC(=O)N1CCC[C@H]1C(=O)OCCCCC(=O)O [III (X₂R₄=CH₂, R₂=R₆=CO, R=H, n=4, m=3), L-7,13,16-trioxo-12,15-diaza-6-oxa-prostanoic]	7 gg: 15	1h: 100	12h: 92	24h: 80
CCCCCNC(=O)CN1CCC[C@H]1C(=O)OCCCCC(=O)O [III (X₂=R₂=R₆=CH₂, R₄=CO, R=H, n=4, m=3), L-7-14-dioxo-12,15-diaza-6-oxa-prostanoic acid]	7 gg: 4	1h: 98	12h: 78	24h: 62
